Experimental findings from US20050282743A1, “Molecular interactions in cells” (Arbor Vita Corporation, priority 2001, published 2005) are described below.

Assay in all cases: G' assay (10 uM PL peptide), results of TABLE 7 and TABLE 12
Type in all cases: binding

Experiment [1] deals with T1, PDZ protein (GST-PDZ fusion) (Homo sapiens, UniProt P57105).
T1 construct: made in house; host or cells: E. coli (DH5alpha, BL21 or JM109)
T1 sequence (P57105 1-145): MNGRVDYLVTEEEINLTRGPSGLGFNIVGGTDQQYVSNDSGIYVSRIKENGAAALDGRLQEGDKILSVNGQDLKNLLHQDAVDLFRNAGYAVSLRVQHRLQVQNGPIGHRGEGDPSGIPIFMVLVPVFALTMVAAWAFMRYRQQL
The settings on record: PDZ Outer Membrane, PDZ Domain 1. In short, it runs like this:
(§1)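 Binding classes derive from A450 nm of bound biotin-tagged PL peptide. A score of 5 needs A450 above 4 in more than two repeats.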

Experiment [2] deals with T2, PDZ protein (GST-PDZ fusion) (Homo sapiens, UniProt Q8NI35).
T2 construct: made in house; host or cells: E. coli (DH5alpha, BL21 or JM109)
The following applies: PDZ INADL. In short, it runs like this:
as §1

The target in experiment [3] is T3, PDZ protein (GST-PDZ fusion) (Homo sapiens, UniProt Q12959).
T3 construct: made in house; host or cells: E. coli (DH5alpha, BL21 or JM109)
The gist of the method:
as §1

For experiment [4], the target named is T4, PDZ protein (GST-PDZ fusion) (Homo sapiens, UniProt Q86UL8).
T4 construct: made in house; host or cells: E. coli (DH5alpha, BL21 or JM109)
The gist of the method: as §1

In experiment [5] the target is T5, PDZ protein (GST-PDZ fusion) (Homo sapiens, UniProt O14907).
T5 construct: made in house; host or cells: E. coli (DH5alpha, BL21 or JM109)
T5 sequence (O14907 1-124): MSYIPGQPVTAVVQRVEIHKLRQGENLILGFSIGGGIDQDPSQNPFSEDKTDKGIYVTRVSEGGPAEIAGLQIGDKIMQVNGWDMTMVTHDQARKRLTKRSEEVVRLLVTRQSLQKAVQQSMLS
The following applies: PDZ TIP1, PDZ Domain 1. In short, it runs like this: as §1

In experiment [6] the target is T6, PDZ protein (GST-PDZ fusion) (Homo sapiens, UniProt Q9NZN5).
T6 construct: made in house; host or cells: E. coli (DH5alpha, BL21 or JM109)
The following applies: PDZ KIAA0382, PDZ Domain 1. In short, it runs like this:
as §1

Setting [7] is: PDZ Atrophin-1 Inter. Prot., PDZ Domain 5.
Setting [8] is: PDZ atrophin-1 interacting Protein, PDZ Domain 3.
Where [9] appears, read: PDZ atrophin-1 interacting Protein (Atrophin-1 Inter. Prot.), PDZ Domain 1.
[10] abbreviates: PDZ atrophin-1 interacting Protein, PDZ Domain 1.

Ends that are not written are not given here. Peptide text beside a SMILES is read from it. * marks the point of attachment. Biotin = O=C1N[C@H]2[C@H](CS[C@H]2CCCCC(=O)*)N1

T6 sequence (Q9NZN5 whole entry, the tested form may be a part): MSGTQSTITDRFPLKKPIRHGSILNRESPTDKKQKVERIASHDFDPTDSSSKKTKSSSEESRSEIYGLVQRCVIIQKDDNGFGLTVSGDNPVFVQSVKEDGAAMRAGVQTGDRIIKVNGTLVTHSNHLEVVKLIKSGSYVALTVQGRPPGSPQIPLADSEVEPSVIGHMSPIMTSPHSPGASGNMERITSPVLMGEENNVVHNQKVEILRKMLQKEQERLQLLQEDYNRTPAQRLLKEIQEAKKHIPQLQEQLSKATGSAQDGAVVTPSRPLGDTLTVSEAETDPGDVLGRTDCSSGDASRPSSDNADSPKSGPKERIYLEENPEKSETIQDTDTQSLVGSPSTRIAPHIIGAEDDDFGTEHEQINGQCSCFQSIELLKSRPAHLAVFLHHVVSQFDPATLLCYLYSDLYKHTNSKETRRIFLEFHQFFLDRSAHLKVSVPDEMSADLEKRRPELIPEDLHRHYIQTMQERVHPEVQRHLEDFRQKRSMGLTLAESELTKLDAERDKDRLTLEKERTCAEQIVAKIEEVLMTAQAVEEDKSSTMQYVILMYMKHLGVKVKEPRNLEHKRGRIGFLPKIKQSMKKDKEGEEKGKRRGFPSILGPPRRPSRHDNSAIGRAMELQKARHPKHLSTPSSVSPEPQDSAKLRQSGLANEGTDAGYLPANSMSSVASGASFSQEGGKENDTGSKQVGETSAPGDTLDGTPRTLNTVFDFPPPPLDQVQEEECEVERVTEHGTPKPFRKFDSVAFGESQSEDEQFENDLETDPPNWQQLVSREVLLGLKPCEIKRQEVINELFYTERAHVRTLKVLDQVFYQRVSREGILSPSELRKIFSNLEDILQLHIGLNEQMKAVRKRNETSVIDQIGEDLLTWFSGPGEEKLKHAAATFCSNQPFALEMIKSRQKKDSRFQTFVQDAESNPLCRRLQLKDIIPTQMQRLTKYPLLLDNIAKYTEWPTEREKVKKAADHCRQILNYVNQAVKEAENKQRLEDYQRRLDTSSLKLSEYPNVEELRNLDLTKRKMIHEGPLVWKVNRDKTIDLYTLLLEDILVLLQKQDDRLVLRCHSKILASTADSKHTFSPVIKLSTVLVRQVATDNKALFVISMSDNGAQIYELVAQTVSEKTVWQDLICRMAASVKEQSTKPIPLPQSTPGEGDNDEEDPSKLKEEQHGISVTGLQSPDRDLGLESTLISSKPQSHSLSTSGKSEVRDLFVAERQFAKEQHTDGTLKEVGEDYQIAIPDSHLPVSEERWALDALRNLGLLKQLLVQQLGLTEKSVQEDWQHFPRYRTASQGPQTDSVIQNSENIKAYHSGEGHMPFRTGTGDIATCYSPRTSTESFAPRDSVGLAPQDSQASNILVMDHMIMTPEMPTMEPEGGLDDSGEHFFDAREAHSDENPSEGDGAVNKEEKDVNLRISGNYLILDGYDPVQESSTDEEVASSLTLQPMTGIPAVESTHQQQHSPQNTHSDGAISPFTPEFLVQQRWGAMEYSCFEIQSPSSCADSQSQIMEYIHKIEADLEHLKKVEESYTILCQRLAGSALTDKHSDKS
T2 sequence (Q8NI35 whole entry, the tested form may be a part): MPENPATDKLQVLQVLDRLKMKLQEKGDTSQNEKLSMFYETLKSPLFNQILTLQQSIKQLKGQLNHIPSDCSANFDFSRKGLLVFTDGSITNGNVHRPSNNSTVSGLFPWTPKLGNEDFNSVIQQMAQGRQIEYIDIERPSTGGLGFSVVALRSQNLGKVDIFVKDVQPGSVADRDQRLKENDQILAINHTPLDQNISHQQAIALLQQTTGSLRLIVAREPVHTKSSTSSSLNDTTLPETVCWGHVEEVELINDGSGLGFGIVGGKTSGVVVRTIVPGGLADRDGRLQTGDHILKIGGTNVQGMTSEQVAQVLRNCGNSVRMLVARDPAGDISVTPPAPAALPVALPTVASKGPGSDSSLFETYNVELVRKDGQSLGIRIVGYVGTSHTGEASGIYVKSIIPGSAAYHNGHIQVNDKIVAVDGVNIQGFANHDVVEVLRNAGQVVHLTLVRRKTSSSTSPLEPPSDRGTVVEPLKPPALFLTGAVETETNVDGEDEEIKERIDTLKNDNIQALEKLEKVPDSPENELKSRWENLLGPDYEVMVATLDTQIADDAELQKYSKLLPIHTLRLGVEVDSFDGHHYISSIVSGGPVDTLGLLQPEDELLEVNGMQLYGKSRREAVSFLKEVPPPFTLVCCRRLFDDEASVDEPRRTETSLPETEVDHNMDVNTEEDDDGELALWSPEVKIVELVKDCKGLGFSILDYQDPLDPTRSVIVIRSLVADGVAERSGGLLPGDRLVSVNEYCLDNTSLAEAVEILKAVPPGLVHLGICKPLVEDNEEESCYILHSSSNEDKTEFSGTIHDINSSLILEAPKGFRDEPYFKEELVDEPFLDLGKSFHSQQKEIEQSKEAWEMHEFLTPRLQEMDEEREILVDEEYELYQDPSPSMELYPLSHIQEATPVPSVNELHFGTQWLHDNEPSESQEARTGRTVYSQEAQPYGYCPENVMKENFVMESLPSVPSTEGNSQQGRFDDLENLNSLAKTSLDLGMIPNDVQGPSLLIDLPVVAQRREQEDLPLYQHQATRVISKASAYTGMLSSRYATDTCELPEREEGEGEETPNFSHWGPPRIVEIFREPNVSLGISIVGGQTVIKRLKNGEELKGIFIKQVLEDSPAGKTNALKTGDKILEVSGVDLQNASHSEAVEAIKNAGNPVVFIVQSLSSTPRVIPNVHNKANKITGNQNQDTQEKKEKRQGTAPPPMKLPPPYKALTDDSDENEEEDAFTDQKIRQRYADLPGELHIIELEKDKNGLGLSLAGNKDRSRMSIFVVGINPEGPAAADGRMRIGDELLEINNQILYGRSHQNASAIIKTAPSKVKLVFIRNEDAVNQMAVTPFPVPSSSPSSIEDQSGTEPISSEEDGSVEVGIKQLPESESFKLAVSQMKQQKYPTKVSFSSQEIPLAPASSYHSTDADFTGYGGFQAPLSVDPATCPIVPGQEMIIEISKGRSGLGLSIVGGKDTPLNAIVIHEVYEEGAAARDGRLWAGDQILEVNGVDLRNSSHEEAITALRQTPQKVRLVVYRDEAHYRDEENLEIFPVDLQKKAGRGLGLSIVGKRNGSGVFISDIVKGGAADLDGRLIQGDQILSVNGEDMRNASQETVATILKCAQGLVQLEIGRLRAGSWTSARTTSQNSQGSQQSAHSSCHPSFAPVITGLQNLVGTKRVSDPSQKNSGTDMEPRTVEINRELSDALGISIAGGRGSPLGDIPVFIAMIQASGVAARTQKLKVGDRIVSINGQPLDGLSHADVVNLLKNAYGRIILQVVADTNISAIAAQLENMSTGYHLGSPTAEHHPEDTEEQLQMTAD
T3 sequence (Q12959 whole entry, the tested form may be a part): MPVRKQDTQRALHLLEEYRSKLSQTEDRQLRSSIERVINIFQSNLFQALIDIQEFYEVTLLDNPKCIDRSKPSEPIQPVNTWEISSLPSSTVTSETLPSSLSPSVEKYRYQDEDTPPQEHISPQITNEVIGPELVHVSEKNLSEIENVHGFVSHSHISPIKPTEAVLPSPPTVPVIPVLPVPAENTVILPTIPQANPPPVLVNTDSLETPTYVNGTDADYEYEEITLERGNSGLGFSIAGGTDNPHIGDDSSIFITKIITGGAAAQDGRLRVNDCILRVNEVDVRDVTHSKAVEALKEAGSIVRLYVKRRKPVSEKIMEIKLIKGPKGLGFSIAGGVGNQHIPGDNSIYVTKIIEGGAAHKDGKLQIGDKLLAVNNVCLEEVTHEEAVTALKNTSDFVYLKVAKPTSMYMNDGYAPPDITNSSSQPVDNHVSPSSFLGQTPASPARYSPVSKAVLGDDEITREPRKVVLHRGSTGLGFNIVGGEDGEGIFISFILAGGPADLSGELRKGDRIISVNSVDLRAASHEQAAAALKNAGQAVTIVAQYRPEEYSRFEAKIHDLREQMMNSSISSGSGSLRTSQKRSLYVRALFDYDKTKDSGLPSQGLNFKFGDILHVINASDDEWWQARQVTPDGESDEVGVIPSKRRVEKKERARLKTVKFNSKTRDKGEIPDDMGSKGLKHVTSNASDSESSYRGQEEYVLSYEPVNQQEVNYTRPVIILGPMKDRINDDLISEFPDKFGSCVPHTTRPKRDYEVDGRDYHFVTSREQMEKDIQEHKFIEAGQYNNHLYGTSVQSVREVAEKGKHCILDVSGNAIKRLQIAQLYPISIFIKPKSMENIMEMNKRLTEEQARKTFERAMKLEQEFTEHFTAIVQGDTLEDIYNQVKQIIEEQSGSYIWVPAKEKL

On to “PYSELNYETSHYPASPDSWV (Biotin-PYSELNYETSHYPASPDSWV) [catenin - delta 2]”, for which the Classification in experiment [1] is 5 (A450 nm of 4 more than 2× repeated); in experiment [2] (PDZ Domain 5), 1 (A450 nm 0-1); in experiment [2] (PDZ Domain 8) it was 2 (A450 nm 1-2); in experiment [3] (PDZ DLG1, PDZ Domain 1), 1 (A450 nm 0-1); in experiment [3] (PDZ DLG1, PDZ Domain 1, 2) it was 3 (A450 nm 2-3); in experiment [3] (PDZ DLG1, PDZ Domain 2), 2 (A450 nm 1-2). The Classification in experiment [4] (setting [7]) is 5 (A450 nm of 4 more than 2× repeated); in experiment [4] (setting [8]), 1 (A450 nm 0-1); in experiment [5] it was 3 (A450 nm 2-3).
For “LNETTETQRTLLNGDLQTSI (Biotin-LNETTETQRTLLNGDLQTSI) [SSTR2 (somatostatin recepor 2)]”, the Classification in experiment [6] is reported as 1 (A450 nm 0-1).
As to `CC(C)C[C@H](NC(=O)[C@H](C)NC(=O)[C@@H](NC(=O)[C@H](CCC(=O)O)NC(=O)[C@H](CCCNC(=N)N)NC(=O)[C@H](CCCNC(=N)N)NC(=O)CNC(=O)[C@H](CCC(N)=O)NC(=O)[C@H](CC(C)C)NC(=O)[C@H](CCCNC(=N)N)NC(=O)CNC(=O)CNC(=O)[C@H](CCCNC(=N)N)NC(=O)[C@H](C)NC(=O)[C@H](CO)NC(=O)[C@H](CCCNC(=N)N)NC(=O)CNC(=O)CNC(=O)[C@H](C)NC(=O)[C@H](C)NC(=O)CCCC[C@@H]1SC[C@@H]2NC(=O)N[C@@H]21)[C@@H](C)O)C(=O)O` [HPV E6 33 (modified)] (Biotin-AAGGRSARGGRLQGRRETAL-OH; C-terminus assumed), the Classification in experiment [1] is on record as 5 (A450 nm of 4 more than 2× repeated); in experiment [3] (PDZ DLG1, PDZ Domain 1) it was 3 (A450 nm 2-3); in experiment [3] (PDZ DLG1, PDZ Domain 2), 5 (A450 nm of 4 more than 2× repeated); in experiment [4] (setting [7]), 1 (A450 nm 0-1); in experiment [4] (setting [9]), 4 (A450 nm 3-4); in experiment [5] it was 5 (A450 nm of 4 more than 2× repeated).
In the case of `CC(C)C[C@H](NC(=O)[C@H](C)NC(=O)[C@H](CO)NC(=O)CNC(=O)[C@@H](NC(=O)CCCC[C@@H]1SC[C@@H]2NC(=O)N[C@@H]21)[C@@H](C)O)C(=O)N[C@@H](CCC(N)=O)C(=O)N[C@@H](C)C(=O)N[C@@H](Cc1c[nH]c2ccccc12)C(=O)N[C@@H](CCCNC(=N)N)C(=O)N[C@@H](Cc1c[nH]cn1)C(=O)N[C@H](C(=O)N[C@@H](CO)C(=O)N[C@@H](CCCNC(=N)N)C(=O)N[C@@H](CCC(N)=O)C(=O)N[C@@H](C)C(=O)N[C@H](C(=O)N[C@@H](CCC(=O)O)C(=O)N[C@@H](CO)C(=O)N[C@H](C(=O)N[C@H](C(=O)O)C(C)C)[C@@H](C)O)[C@@H](C)O)[C@@H](C)O` [HPV E6 #66 (modified)] (Biotin-TGSALQAWRHTSRQATESTV-OH; C-terminus assumed), the Classification is 5 (A450 nm of 4 more than 2× repeated) in experiment [1]; 1 (A450 nm 0-1) in experiment [2] (PDZ Domain 8); 4 (A450 nm 3-4) in experiment [3] (PDZ DLG1, PDZ Domain 1); 5 (A450 nm of 4 more than 2× repeated) in experiment [3] (PDZ DLG1, PDZ Domain 1, 2); 5 (A450 nm of 4 more than 2× repeated) in experiment [3] (PDZ DLG1, PDZ Domain 2); 1 (A450 nm 0-1) in experiment [4] (setting [7]). In addition, the Classification in experiment [4] (setting [9]) and in experiment [5] was 5 (A450 nm of 4 more than 2× repeated) in each case.
Turning to `CC(C)C[C@H](NC(=O)[C@H](CC(=O)O)NC(=O)[C@H](CO)NC(=O)[C@H](CCC(=O)O)NC(=O)CNC(=O)[C@H](Cc1ccc(O)cc1)NC(=O)[C@H](CC(C)C)NC(=O)[C@H](C)NC(=O)[C@H](CO)NC(=O)[C@H](CO)NC(=O)[C@H](Cc1ccccc1)NC(=O)[C@H](C)NC(=O)[C@H](C)NC(=O)[C@H](Cc1ccc(O)cc1)NC(=O)[C@H](CC(=O)O)NC(=O)[C@H](CC(C)C)NC(=O)[C@H](C)NC(=O)CNC(=O)[C@@H]1CCCN1C(=O)[C@@H](NC(=O)CCCC[C@@H]1SC[C@@H]2NC(=O)N[C@@H]21)C(C)C)C(=O)O` [a-actinin 2] (Biotin-VPGALDYAAFSSALYGESDL-OH; C-terminus assumed), the Classification in experiment [1] is given as 1 (A450 nm 0-1); in experiment [2] (PDZ Domain 3), 1 (A450 nm 0-1); in experiment [3] (PDZ DLG1, PDZ Domain 1, 2), 1 (A450 nm 0-1); in experiment [3] (PDZ DLG1, PDZ Domain 2), 1 (A450 nm 0-1); in experiment [4] (setting [7]), 5 (A450 nm of 4 more than 2× repeated); in experiment [5], 5 (A450 nm of 4 more than 2× repeated).
Regarding `CC[C@H](C)[C@H](NC(=O)[C@H](CC(=O)O)NC(=O)[C@H](CCC(=O)O)NC(=O)[C@H](CCCNC(=N)N)NC(=O)[C@@H](NC(=O)CCCC[C@@H]1SC[C@@H]2NC(=O)N[C@@H]21)[C@@H](C)O)C(=O)N[C@@H](Cc1ccc(O)cc1)C(=O)N[C@H](C(=O)N[C@@H](CC(N)=O)C(=O)N[C@@H](Cc1ccc(O)cc1)C(=O)N1CCC[C@H]1C(=O)N[C@H](C(=O)N[C@@H](Cc1ccccc1)C(=O)N[C@@H](CO)C(=O)N[C@@H](CCCNC(=N)N)C(=O)N[C@@H](CCCNC(=N)N)C(=O)N1CCC[C@H]1C(=O)N[C@@H](CCCCN)C(=O)N[C@H](C(=O)N[C@@H](CCCNC(=N)N)C(=O)N[C@H](C(=O)O)C(C)C)[C@@H](C)O)[C@@H](C)O)C(C)C` [DNAM-1] (Biotin-TREDIYVNYPTFSRRPKTRV-OH; C-terminus assumed), the Classification is reported as 1 (A450 nm 0-1) in experiment [1], 5 (A450 nm of 4 more than 2× repeated) in experiment [2] (PDZ Domain 8), 3 (A450 nm 2-3) in experiment [4] (setting [10]) and 1 (A450 nm 0-1) in experiment [5].
Regarding “ELLQFCRTPNPALKNGQYWV (Biotin-ELLQFCRTPNPALKNGQYWV)”, the Classification in experiment [1] is 1 (A450 nm 0-1); in experiment [2] (PDZ Domain 3), 3 (A450 nm 2-3); in experiment [2] (PDZ Domain 5), 5 (A450 nm of 4 more than 2× repeated); in experiment [2] (PDZ Domain 8), 3 (A450 nm 2-3); in experiment [4] (setting [7]) it was 2 (A450 nm 1-2); in experiment [4] (setting [10]) it was 1 (A450 nm 0-1). For the same molecule, the Classification in experiment [4] (setting [8]) was 2 (A450 nm 1-2); in experiment [5] it was 1 (A450 nm 0-1).
As to “VHDAESSDEDGYDWGPATDL (Biotin-VHDAESSDEDGYDWGPATDL) [zona occludens 3 (ZO-3)]”, the Classification in experiment [6] is on record as 2 (A450 nm 1-2).
Turning to `CC(C)C[C@H](NC(=O)[C@H](CCCNC(=N)N)NC(=O)CNC(=O)CNC(=O)[C@H](CCCNC(=N)N)NC(=O)[C@H](C)NC(=O)[C@@H]1CCCN1C(=O)[C@H](CCCNC(=N)N)NC(=O)CNC(=O)CNC(=O)[C@@H](NC(=O)[C@H](C)NC(=O)CCCC[C@@H]1SC[C@@H]2NC(=O)N[C@@H]21)C(C)C)C(=O)N[C@@H](CCC(N)=O)C(=O)NCC(=O)N[C@@H](CCCNC(=N)N)C(=O)N[C@@H](CCCNC(=N)N)C(=O)N[C@@H](CCC(N)=O)C(=O)N[C@H](C(=O)N[C@@H](CCC(N)=O)C(=O)N[C@H](C(=O)O)C(C)C)[C@@H](C)O` [HPV E6 58 (modified)] (Biotin-AVGGRPARGGRLQGRRQTQV-OH; C-terminus assumed), the Classification in experiment [1] is given as 5 (A450 nm of 4 more than 2× repeated); in experiment [2] (PDZ Domain 8), 4 (A450 nm 3-4); in experiment [3] (PDZ DLG1, PDZ Domain 1), 5 (A450 nm of 4 more than 2× repeated); in experiment [3] (PDZ DLG1, PDZ Domain 2), 5 (A450 nm of 4 more than 2× repeated); in experiment [4] (setting [9]), 5 (A450 nm of 4 more than 2× repeated); in experiment [5], 4 (A450 nm 3-4).
“KTMPAAMFRLLTGQETPLYI (Biotin-KTMPAAMFRLLTGQETPLYI) [MINT-2]”: in experiment [6], the Classification is 1 (A450 nm 0-1).
